Values quoted from earlier work in PMC3261373 (Bioconjugate Chemistry, 2011).
Values belong to the molecule of their own block, whether it stands above or below them.

Assays:
αvβ3-integrin = conditions: in vivo blocking studies
[1] = tested on: angiogenesis and tumor growth; conditions: in words

Molecule: cyclic CNGRC [cyclic CNGRC peptide]
binding affinity to APN (APN; enzyme inhibition studies): moderate binding affinity
binding to APN/CD13 (APN; in words): known to bind APN/CD13

binding to tumors and tissues expressing αvβ3-integrin (αvβ3-integrin): selective binding
Molecule: cyclic CisoDGRC [^99mTc-labeled cyclic CisoDGRC conjugate]

Molecule: CC(C)C[C@H](NC(=O)[C@@H](O)[C@H](N)Cc1ccccc1)C(=O)O [bestatin]
effect on angiogenesis and tumor growth [1]: suppressed angiogenesis and tumor growth
mode of APN inhibition (APN; in words): slow-binding competitive inhibitor
